{"source": "patent US11672843B2", "about": "“Somatostatin receptor agonist formulations” (CAMURUS AB, priority 2012, dated 2023)", "key": {"[1]": {"settings": "in vivo; cited from earlier work"}, "[2]": {"test_system": "SSTR2 and SSTR5", "settings": "cited from earlier work"}, "[3]": {"assay": "Solubility screening of SOM230 in lipid formulations (visual inspection)", "format": "physicochemical", "experimental": "Placebo lipid mixture formulations as well as formulations of the single respective lipid alone were prepared in 1 OR vials according to Table 1. The sample size was 6 g. […] The samples were allowed to equilibrate at ambient room temperature; samples with formulation types 1-8 on end-over-end rotation and samples with formulation types 9-12 on magnetic stirring. The flow chart in FIG. 1 describes the sample preparation process. The screening covered the following formulation variables: • Lipid weight ratio (SPC/GDO weight ratio) • Co-solvent nature and concentration • Single lipid formulations • Single solvent (only PG) The samples were studied by visual inspection and the appearance was noted. […] Mixing at ambient room temperature and visual observation continued after addition of more SOM230 drug powder."}, "[4]": {"settings": "cited from earlier work"}, "[5]": {"assay": "Stability comparison of SOM230 salt forms in lipid formulations, HPLC", "format": "physicochemical", "settings": "storage for 2 weeks at 60° C.; ca 30 mg/mL free base", "experimental": "The lipid/SOM230(Pm), lipid/SOM230(Cl) and lipid/SOM230(Ac) formulations were divided into two 2R vials which were placed at 60° C. and the remaining amount from the preparation was assayed by HPLC (time point zero).\nThe samples stored at 60° C. were pulled out after 2 weeks of storage for visual inspection and HPLC analysis."}}, "note": "Structures can show the parent of a compound that is named as a salt. *1 amine or outer side, *2 acyl side, *3 side chain or, on linkers, in order; H or OH if unused. Where a SMILES comes first, the peptide text is derived from it. Side-chain parts run from the residue outwards. [ ]: non-standard residue; d: D form. The star is where a group is joined. Ethylenediamine = C(CN[*:2])N[*:1]; Hyp = O=C(O)[C@@H]1C[C@@H](O)CN1; Phg = N[C@H](C(=O)O)c1ccccc1; CO = O=C([*:1])[*:2]; Bn = c1ccc(C*)cc1"}
{"molecule": "C[C@@H](O)[C@@H]1NC(=O)[C@H](CCCCN)NC(=O)[C@@H](Cc2c[nH]c3ccccc23)NC(=O)[C@H](Cc2ccccc2)NC(=O)[C@@H](NC(=O)[C@H](N)Cc2ccccc2)CSSC[C@@H](C(=O)N[C@H](CO)[C@@H](C)O)NC1=O", "note": "[Octreotide, D-Phe-Cys-Phe-D-Trp-Lys-Thr-Cys-Thr-ol (2-7 disulphide bridge)]", "values": [{"measurement": "Terminal half-life", "setting": "[1]", "value": "around 1.7 hours"}, {"measurement": "Selectivity for somatostatin receptors", "setting": "[2]", "value": "high selectivity"}]}
{"molecule": "NCCCC[C@@H]1NC(=O)[C@@H](Cc2c[nH]c3ccccc23)NC(=O)[C@H](c2ccccc2)NC(=O)[C@@H]2C[C@@H](OC(=O)NCCN)CN2C(=O)[C@H](Cc2ccccc2)NC(=O)[C@H](Cc2ccc(OCc3ccccc3)cc2)NC1=O", "note": "[Pasireotide] (cyclo([Hyp]([CO-Ethylenediamine])[Phg][dW]KY(Bn)F); ring closure inferred)", "values": [{"measurement": "Solubility of SOM230 in EtOH", "setting": "[3]; ethanol", "value": "< 1", "unit": "wt %"}, {"measurement": "Solubility of SOM230 in PG", "setting": "[3]; propylene glycol only", "value": "> 1", "unit": "wt %"}, {"measurement": "Half-life", "setting": "[4]; biological half-life", "value": "2 to 3", "unit": "h"}, {"measurement": "Initial half-life following the peak", "setting": "[4]; human, single subcutaneous dose", "value": "2 to 3", "unit": "h"}]}
{"molecule": "NCCCC[C@@H]1NC(=O)[C@@H](Cc2c[nH]c3ccccc23)NC(=O)[C@H](c2ccccc2)NC(=O)[C@@H]2C[C@@H](OC(=O)NCCN)CN2C(=O)[C@H](Cc2ccccc2)NC(=O)[C@H](Cc2ccc(OCc3ccccc3)cc2)NC1=O", "note": "[SOM230 hydrochloride] (cyclo([Hyp]([CO-Ethylenediamine])[Phg][dW]KY(Bn)F))", "values": [{"measurement": "Stability of salt form in the lipid formulations (HPLC)", "setting": "[5]", "value": "more stable than the acetate salt but not as stable as the pamoate salt"}]}
{"molecule": "Pasireotide pamoate [SOM230 pamoate]", "values": [{"measurement": "Stability of salt form in the lipid formulations (HPLC)", "setting": "[5]", "value": "most stable salt form"}]}
